Reference: article PMC3629230, “Permeability Enhancers Dramatically Increase Zanamivir Absolute Bioavailability in Rats: Implications for an Orally Bioavailable Influenza Treatment” (PLoS ONE, 2013)
Where two headings read alike, the source gives them in different places.

How the values were obtained:
[1] = cited from earlier work
[2] = tested on: neuraminidase; conditions: more potent; cited from earlier work
[3] = tested on: Caco-2 cell monolayers; assay: Unidirectional (A-to-B) permeability of zanamivir across Caco-2 cell monolayers with and without excipients; assay type: in vitro ADME; conditions: initial screening, glycerol and Capmul MCM L8, results not shown
Protocol: Caco-2 cells were obtained from American Type Culture Collection (Rockville, MD). Stock cultures were maintained in flasks with DMEM medium supplemented with 10% FBS, 1% non-essential amino acids, 1 mmol/L sodium pyruvate, 100 IU/mL penicillin, and 100 µg/mL streptomycin in a humidified incubator (37°C, 5% CO2). Cells were harvested by trypsinization and seeded at 60,000 cells/cm^2 onto Costar Transwell® 12-well dual-chamber plates with collagen-coated, microporous polycarbonate membranes (1.13 cm^2 insert area, 0.4 µm pore size; Corning Life Sciences, Acton, MA) for permeability studies. The culture medium was changed three times per week.
Caco-2 cell monolayers that had grown for at least 20 days were subjected to batch quality control testing in which permeation rates were measured for atenolol, digoxin, estrone-3-sulfate, lucifer yellow (LY), and propranolol. In addition, the transepithelial electrical resistance (TEER) across each experimental monolayer was tested prior to an experiment.
Unidirectional (A-to-B) permeability of zanamivir was determined at 15 µg/mL in the absence and presence of varying concentrations of excipients in Caco-2 cell monolayers. The assay buffer was Hanks' balanced salt solution (HBSS) supplemented with 10 mM 4-(2-hydroxyethyl)-1-piperazineethanesulfonic acid (HEPES) and 15 mM D-glucose (HBSSg), pH 7.4. The dosing solutions on the apical side (0.5 mL) contained either zanamivir and excipients at each concentration being tested or zanamivir only (n = 4), while the receiver buffer in the bottom well (1.5 mL) was always excipient-free. The Caco-2 cell monolayers were incubated for 120 min in a humidified incubator (37°C, 5% CO2) after dosing in the apical chambers. Aliquots (200 µL each) of receiver buffer were sampled at 60 min, 90 min, and 120 min after dosing, with replacement by the same volume of blank buffer (at 60 min and 90 min). Donors were sampled at 0 and 120 min.
Experimental samples were identically treated.

Row | SMILES | Oral bioavailability ([1]; in vivo, po) | Oral bioavailability [1] | Absolute bioavailability ([1]; in vivo) | further results
1 | CCOC(=O)C1=CC(OC(CC)CC)C(NC(C)=O)C(NC(=N)N)C1 (stereo not shown) [GL4116 ethyl ester] | under 5% | – | – | –
2 | CCC(CC)OC1C=C(C(=O)O)CC(NC(=N)N)C1NC(C)=O (stereo not shown) [GS4116 carboxylate] | under 5% | – | – | Inhibitor potency relative to oseltamivir carboxylate [2]: 10 fold
3 | CO[C@@H]([C@@H]1OC(C(=O)O)=C[C@H](NC(=N)N)[C@H]1NC(C)=O)[C@H](O)CO [laninamivir] | – | under 2% | – | –
4 | CCC(CC)O[C@@H]1C=C(C(=O)O)C[C@H](N)[C@H]1NC(C)=O [oseltamivir carboxylate] | 2% | – | under 5% | –
5 | CCOC(=O)C1=C[C@@H](OC(CC)CC)[C@H](NC(C)=O)[C@@H](N)C1 [oseltamivir] | at least 35% | – | ≥ 35% | –
6 | CCC(CC)[C@H](NC(C)=O)[C@@H]1[C@H](O)[C@@H](C(=O)O)C[C@H]1N=C(N)N [peramivir] | – | under 2% | – | Drug transport across Caco-2 cell monolayers with enhancers [3]: substantially increased drug transport
